Patent US9701655B2, “Functionalised benzopyran compounds and use thereof” (NOVOGEN LIMITED, priority 2014, dated 2017)

Legend:
A172 = assay: Proliferation of somatic cancer cells (cell-titre luminescence), A172; format: cell-based; conditions: Homo sapiens, A 172; Brain A172, 72 hrs
How it was run: (§1)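 Cells seeded and cultured 24 h at 37 °C, 5% CO2, then exposed to compound at 30, 3, 0.3 and 0.03 μM for a further 72 h. Viability read by cell-titre luminescence after 30 min; IC50 from linear regression of semi-log plots of percent of control versus concentration.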

PC3 = assay: Proliferation of somatic cancer cells (cell-titre luminescence), PC3; format: cell-based; conditions: Prostate PC3, 72 hrs
How it was run: (§2)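 Luminescence after 30 mins with cell-titre reagent served as the read-out, expressed as percent of control, with IC50 obtained by linear regression of semi-log plots. Treatment lasted 72 hrs at 30, 3, 0.3 and 0.03 μM, following 24 hrs attachment at 37° C.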

MDA-MB-231 = assay: Proliferation of somatic cancer cells (cell-titre luminescence), MDA-MB-231; format: cell-based; conditions: Breast MDA-MB-231, 72 hrs
How it was run: as §2

DU145 = assay: Proliferation of somatic cancer cells (cell-titre luminescence), DU145; format: cell-based; conditions: Prostate DU145, 72 hrs
How it was run: as §2

A549 = assay: Proliferation of somatic cancer cells (cell-titre luminescence), A549; format: cell-based; conditions: Lung (NSCLC) A549, 72 hrs
How it was run: as §2

OVCAR-3 = assay: Proliferation of somatic cancer cells (cell-titre luminescence), OVCAR-3; format: cell-based; conditions: Homo sapiens; Ovarian OVCAR-3, 72 hrs
How it was run: as §1

HT-29 = assay: Proliferation of somatic cancer cells (cell-titre luminescence), HT-29; format: cell-based; conditions: Homo sapiens; Colorectal HT-29, 72 hrs
How it was run: as §2

SK-Mel-28 = assay: Proliferation of somatic cancer cells (cell-titre luminescence), SK-Mel-28; format: cell-based; conditions: Homo sapiens; Melanoma SK-Mel-28, 72 hrs
How it was run: as §2

SK-OV-3 = assay: Proliferation of somatic cancer cells (cell-titre luminescence), SK-OV-3; format: cell-based; conditions: Homo sapiens; Ovarian SK-OV-3, 72 hrs
Method: (§3) The ability of selected compounds to inhibit the proliferation of cancer cells representative of melanoma, non-small cell lung cancer, colorectal cancer, breast cancer (Estogen Receptor negative (ER−ve, TNBC−R−ve, Progesterone Receptor negative and negative for EGFR amplification), prostate cancer, liver cancer, ovarian cancer, pancreatic cancer and brain cancer was studied. A pre-determined number of cells as calculated from cell growth assays for each of the cell lines employed were seeded into their respective culture mediums (using ATCC culture parameters—http://wwvv.atcc.org) and cultured for 24 hrs at 37° C. and 5% CO2 in 96-well culture plates. Once attached, each cell line was then exposed to various concentrations of each respective analogue (30, 3, 0.3 and 0.03 μM), cultured for a further 72 hrs and exposed to cell-titre luminescent reagent (100μ/well) for a further 30 mins). Luminescence was captured using an EnVision multilabel reader and the data for each analogue concentration compared against control. Semi-log plots of Percent of Control versus concentration were prepared and IC50 determined using linear regression analysis. In Table 6, compounds Comp 1, Comp 2 and Comp 3 are comparative compounds having the following structures: […]

A2780 = assay: Proliferation of somatic cancer cells (cell-titre luminescence), A2780; format: cell-based; conditions: Homo sapiens; Ovarian A2780, 72 hrs
Method: as §3

mCherry-labeled OCC2 = assay: Co-culture fluorescence microscopy, mCherry-labeled OCC2 cells; format: cell-based, human; conditions: 1 μg/ml for 48 hrs, recovery 72 hrs
Method: GFP-labeled OCSC2 and mCherry-labeled OCC2 cells were established by infecting cells with lentivirus expressing the fluorescent proteins (Craveiro et al. 2013). Co-cultures of GFP+ OCSC2 and mCherry+ OCC2 were treated with 1 μg/ml of compound 2 for 48 hrs and allowed to recover for another 72 hrs. Fluorescence was determined by fluorescence microscopy.

U87-resistant = assay: Cell viability (SRB or MTT), TMZ-resistant U87 subclone; format: cell-based; conditions: 72 h, 72 hours post treatment
Method: (§4) The anti-proliferative activity of compound 2 was also assessed in matched TMZ susceptible (D54-S and U87-S) or resistant (D54-R and […]) cell lines (Hong Kong University, Dr Gilberto Leung). […] SRB tended to overestimate cytotoxicity compared to MTT.

MiaPaCa-2 = assay: Proliferation of somatic cancer cells (cell-titre luminescence), MiaPaCa-2; format: cell-based; conditions: Homo sapiens, MIA PaCa-2; Pancreatic MiaPaCa-2, 72 hrs
Method: as §3

D54-sensitive = assay: Cell viability (SRB or MTT), TMZ-sensitive D54 subclone; format: cell-based; conditions: 72 h, 72 hours post treatment
Method: as §4

OCSC-2 cells = assay: OCSC-2 proliferation after removal of drug pressure (Incucyte confluence); format: cell-based, human; conditions: pre-treated 24 hrs with 0.1, 1 and 10 μg/ml, washed, additional 48 hrs in medium without drug
Method: Given the concept that residual cancer progenitor cells within the tumour post-treatment are responsible for tumour relapse, a critical therapeutic strategy to prolong survival is to eradicate those tumour progenitor cells driving relapse. In vitro studies were conducted to determine whether compound 2 was able to inhibit OCSC proliferation once drug pressure was removed. […] Culture plates were immediately placed in the Incucyte system and imaged every 2 hrs. Growth curves were calculated as a measure of cell confluence using an integrated confluence algorithm as a surrogate for cell number to determine proliferation rate.

Row | Compound | IC50 (A172) | IC50 (PC3; Homo sapiens, PC-3, 72 h) | IC50 (MDA-MB-231) | IC50 (MDA-MB-231; Homo sapiens, MDA-MB-231, 72 h) | IC50 (DU145) | IC50 (A549) | IC50 (OVCAR-3) | IC50 (HT-29) | IC50 (SK-Mel-28) | IC50 (SK-OV-3) | IC50 (A2780) | IC50 (MiaPaCa-2) | further results
1 | COc1cc(C2COc3cc(O)ccc3C2c2ccc(O)c(F)c2)cc(OC)c1O (racemic) [Compound 6, 4-(3-Fluoro-4-hydroxyphenyl)-3-(4-hydroxy-3,5-dimethoxyphenyl)chroman-7-ol] | 193 nM | < 1000 nM | 1700 nM | < 2000 nM | 800 nM | 700 nM | 63 nM | 8.4 µM | > 30000 nM | 193 nM | – | – | IC50 (PC3): 500 nM; IC50 (DU145; Homo sapiens, DU-145, 72 h): < 1000 nM; IC50 (A549; Homo sapiens, A549, 72 h): < 1000 nM
2 | COc1cc(C2COc3c(ccc(O)c3C)C2c2ccc(O)cc2)cc(OC)c1O (racemic) [Compound 2, 3-(4-Hydroxy-3,5-dimethoxyphenyl)-4-(4-hydroxyphenyl)-8-methylchroman-7-ol] | 127 nM | 1490 nM | 800 nM | < 1000 nM | 80 nM | 40 nM | 63 nM | 8.2 µM | 1400 nM | 106 nM | 60 nM | 50 nM | IC50 (DU145; listed as compound 2): < 1000 nM; IC50 (A549; listed as compound 2): < 1000 nM; effect on mCherry-labeled OCC2 cells (mCherry-labeled OCC2): round up and lift off the culture surface; IC50 (U87-resistant; MTT): 358 nM; IC50 (U87-resistant; SRB): 128 nM; IC50 (D54-sensitive; MTT): 271 nM; IC50 (D54-sensitive; SRB): 90 nM; growth after drug removal (OCSC-2 cells): failed to enter logarithmic growth
3 | COc1cc(C2COc3c(ccc(O)c3C)C2c2ccc(O)c(F)c2)cc(OC)c1O (racemic) [Compound 9, 4-(3-Fluoro-4-hydroxyphenyl)-3-(4-hydroxy-3,5-dimethoxyphenyl)-8-methylchroman-7-ol] | 160 nM | – | – | – | – | – | 58 nM | 6.5 µM | 2700 nM | 142 nM | 90 nM | 60 nM | –
